Test results taken from the supplement of paper PMC10307832.

Columns and labels:
Assay in all cases: relative viability (nuclei count vs DMSO), 5 days (fraction); higher = more cells survive
[1] = system: NCI-H647
Summary of the method: (§1)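 The day after seeding in 1536-well plates, lung cancer cell lines were treated by pin tool with a single drug, or with a fixed anchor-drug dose together with five library-drug doses (not always all listed) in √10 steps. After 5 days, a combined fix-and-stain solution (final 0.05% Triton X-100, 1% formaldehyde, 1 ug/ml Hoechst) was added. Nuclei counted on 4× images gave relative viability as treated counts over vehicle counts, reported as the median of duplicate plates.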

[2] = system: SK-MES-1
Summary of the method: as §1

[3] = system: NCI-H2228
Summary of the method: as §1

[4] = system: LC-2-ad
Summary of the method: as §1

[5] = system: NCI-H596
Summary of the method: as §1

[6] = system: NCI-H1395
Summary of the method: as §1

[7] = system: NCI-H2170
Summary of the method: as §1

[8] = system: HCC-366
Summary of the method: as §1

[9] = system: HARA
Summary of the method: as §1

[10] = system: NCI-H1792
Summary of the method: as §1

[11] = system: EKVX
Summary of the method: as §1

[12] = system: HCC-44
Summary of the method: as §1

[13] = system: BEN
Summary of the method: as §1

[14] = system: NCI-H1734
Summary of the method: as §1

[15] = system: SK-LU-1
Summary of the method: as §1

[16] = system: HCC-827
Summary of the method: as §1

[17] = system: NCI-H2009
Summary of the method: as §1

[18] = system: NCI-H2405
Summary of the method: as §1

[19] = system: NCI-H661
Summary of the method: as §1

[20] = system: LOU-NH91
Summary of the method: as §1

[21] = system: NCI-H1355
Summary of the method: as §1

[22] = system: NCI-H2087
Summary of the method: as §1

[23] = system: NCI-H1437
Summary of the method: as §1

COc1cc(N2CCC(C(N)=O)CC2)ccc1Nc1nc(N)c(Cl)c(Nc2ccccc2S(=O)(=O)C(C)C)n1 [HG-5-88-01] + CS(=O)(=O)CCNCc1ccc(-c2ccc3ncnc(Nc4ccc(OCc5cccc(F)c5)c(Cl)c4)c3c2)o1 [Lapatinib] (partner 2 µM)
relative viability ([1]; first compound 0.04 µM): 0.929
relative viability ([1]; first compound 0.1265 µM): 1.23
relative viability ([1]; first compound 1.265 µM): 1.11
relative viability ([1]; first compound 4 µM): 1.21
relative viability ([2]; first compound 0.04 µM): 0.442
relative viability ([2]; first compound 0.1265 µM): 0.453
relative viability ([2]; first compound 0.4 µM): 0.407
relative viability ([2]; first compound 1.265 µM): 0.477
relative viability ([2]; first compound 4 µM): 0.469
relative viability ([3]; first compound 0.04 µM): 0.322
relative viability ([3]; first compound 0.1265 µM): 0.264
relative viability ([3]; first compound 0.4 µM): 0.394
relative viability ([3]; first compound 1.265 µM): 0.409
relative viability ([3]; first compound 4 µM): 0.356
relative viability ([4]; first compound 0.04 µM): 0.993
relative viability ([4]; first compound 0.1265 µM): 1.02
relative viability ([4]; first compound 0.4 µM): 0.876
relative viability ([4]; first compound 1.265 µM): 0.908
relative viability ([4]; first compound 4 µM): 0.629
relative viability ([5]; first compound 0.04 µM): 0.956
relative viability ([5]; first compound 0.1265 µM): 1.03
relative viability ([5]; first compound 0.4 µM): 1.06
relative viability ([5]; first compound 1.265 µM): 1.12
relative viability ([5]; first compound 4 µM): 0.781
relative viability ([6]; first compound 0.04 µM): 0.933
relative viability ([6]; first compound 0.1265 µM): 1
relative viability ([6]; first compound 0.4 µM): 1.12
relative viability ([6]; first compound 1.265 µM): 1.05
relative viability ([6]; first compound 4 µM): 0.83
relative viability ([7]; first compound 0.04 µM): 0.247
relative viability ([7]; first compound 0.1265 µM): 0.275
relative viability ([7]; first compound 0.4 µM): 0.251
relative viability ([7]; first compound 1.265 µM): 0.267
relative viability ([7]; first compound 4 µM): 0.251
relative viability ([8]; first compound 0.04 µM): 1.04
relative viability ([8]; first compound 0.1265 µM): 1.04
relative viability ([8]; first compound 0.4 µM): 0.863
relative viability ([8]; first compound 1.265 µM): 1.08
relative viability ([8]; first compound 4 µM): 1.29
relative viability ([9]; first compound 0.04 µM): 0.754
relative viability ([9]; first compound 0.1265 µM): 0.528
relative viability ([9]; first compound 0.4 µM): 0.671
relative viability ([9]; first compound 1.265 µM): 0.71
relative viability ([9]; first compound 4 µM): 0.31
relative viability ([10]; first compound 0.04 µM): 0.792
relative viability ([10]; first compound 0.1265 µM): 0.892
relative viability ([10]; first compound 0.4 µM): 0.864
relative viability ([10]; first compound 1.265 µM): 0.879
relative viability ([10]; first compound 4 µM): 0.888
relative viability ([11]; first compound 0.04 µM): 0.212
relative viability ([11]; first compound 0.1265 µM): 0.215
relative viability ([11]; first compound 0.4 µM): 0.184
relative viability ([11]; first compound 4 µM): 0.15
relative viability ([12]; first compound 0.04 µM): 0.978
relative viability ([12]; first compound 0.1265 µM): 0.987
relative viability ([12]; first compound 0.4 µM): 0.845
relative viability ([12]; first compound 1.265 µM): 1.04
relative viability ([12]; first compound 4 µM): 0.669
relative viability ([13]; first compound 0.04 µM): 0.817
relative viability ([13]; first compound 0.1265 µM): 0.743
relative viability ([13]; first compound 0.4 µM): 0.66
relative viability ([13]; first compound 1.265 µM): 0.586
relative viability ([13]; first compound 4 µM): 0.545
relative viability ([14]; first compound 0.04 µM): 1
relative viability ([14]; first compound 0.1265 µM): 1.08
relative viability ([14]; first compound 0.4 µM): 1.02
relative viability ([14]; first compound 1.265 µM): 0.982
relative viability ([14]; first compound 4 µM): 0.969
relative viability ([15]; first compound 0.04 µM): 0.947
relative viability ([15]; first compound 0.1265 µM): 0.855
relative viability ([15]; first compound 0.4 µM): 0.787
relative viability ([15]; first compound 1.265 µM): 0.611
relative viability ([15]; first compound 4 µM): 0.737
relative viability ([16]; first compound 0.04 µM): 0.202
relative viability ([16]; first compound 0.1265 µM): 0.211
relative viability ([16]; first compound 0.4 µM): 0.17
relative viability ([16]; first compound 1.265 µM): 0.197
relative viability ([16]; first compound 4 µM): 0.17
relative viability ([17]; first compound 0.04 µM): 0.943
relative viability ([17]; first compound 0.1265 µM): 1.01
relative viability ([17]; first compound 0.4 µM): 0.843
relative viability ([17]; first compound 1.265 µM): 0.939
relative viability ([17]; first compound 4 µM): 0.433
relative viability ([18]; first compound 0.04 µM): 1.25
relative viability ([18]; first compound 0.1265 µM): 1.14
relative viability ([18]; first compound 0.4 µM): 0.992
relative viability ([18]; first compound 1.265 µM): 0.894
relative viability ([18]; first compound 4 µM): 0.865
relative viability ([19]; first compound 0.04 µM): 0.505
relative viability ([19]; first compound 0.1265 µM): 0.518
relative viability ([19]; first compound 0.4 µM): 0.487
relative viability ([19]; first compound 4 µM): 0.542
relative viability ([20]; first compound 0.04 µM): 0.743
relative viability ([20]; first compound 0.1265 µM): 0.673
relative viability ([20]; first compound 0.4 µM): 0.594
relative viability ([20]; first compound 1.265 µM): 0.592
relative viability ([20]; first compound 4 µM): 0.608
relative viability ([21]; first compound 0.04 µM): 1.08
relative viability ([21]; first compound 0.1265 µM): 1.04
relative viability ([21]; first compound 0.4 µM): 0.832
relative viability ([21]; first compound 1.265 µM): 0.917
relative viability ([21]; first compound 4 µM): 0.623
relative viability ([22]; first compound 0.04 µM): 1.01
relative viability ([22]; first compound 0.1265 µM): 0.988
relative viability ([22]; first compound 0.4 µM): 0.989
relative viability ([22]; first compound 1.265 µM): 0.899
relative viability ([22]; first compound 4 µM): 0.735
relative viability ([23]; first compound 0.04 µM): 0.8
relative viability ([23]; first compound 0.1265 µM): 0.945
relative viability ([23]; first compound 0.4 µM): 0.756
relative viability ([23]; first compound 1.265 µM): 0.761
relative viability ([23]; first compound 4 µM): 0.454
